One assay relates to CaCYP51 Y132F+K143R. Nature of the assay: CYP51 reconstitution assay. It is filed as biochemical, Candida albicans. Conditions: Y132F+K143R. The procedure: Azole antifungal agents were added in 2.5 μl dimethyl sulfoxide, followed by 10 min of incubation at 37°C prior to assay initiation with 4 mM β-NADPH-Na4. The samples were then shaken for 15 min at 37°C. Sterol metabolites were recovered by extraction with ethyl acetate, followed by derivatization with 0.1 ml N,O-bis(trimethylsilyl)trifluoroacetamide (BSTFA)–trimethylchlorosilane (TMCS) (99:1) and 0.3 ml anhydrous pyridine (2 h at 80°C), prior to analysis by gas chromatography-mass spectrometry (GC-MS) ([52]). IC50 determinations were performed in duplicate.

A further assay concerns the target T1, CaCYP51 D278N (Candida albicans, UniProt P10613, D278N).
T1 construct: made in house; host or cells: E. coli DH5α (pCWori+)
Briefly: Azole ligand binding (type II difference spectra). Conditions: 4 μM protein, 22°C, ± standard deviation, triplicate, read-out: dissociation constant (Kd). The procedure: (§1) Studies of azole antifungal binding to 4 μM CaCYP51 proteins were performed as previously described ([53]) using quartz split cuvettes with a 4.5-mm light path. […] Azole antifungals were progressively titrated against the CaCYP51 proteins in 0.1 M Tris-HCl (pH 8.1) and 25% glycerol at 22°C, with equivalent volumes of dimethyl sulfoxide also being added to the CYP51-containing compartment of the reference cuvette. The absorbance difference spectra between 500 and 350 nm were determined after each incremental addition of azole, with binding saturation curves constructed from the change in the peak and trough absorbance (ΔApeak-trough) against the azole concentration. The dissociation constant (Kd) of the enzyme-azole complex for each azole was determined by nonlinear regression (Levenberg-Marquardt algorithm) using a rearrangement of the Morrison equation for tight ligand binding ([54], [55]). Tight binding is normally observed when the Kd for a ligand is similar to or lower than the concentration of the enzyme present ([56]). Where ligand binding was weak, the Michaelis-Menten equation was used to fit the data. Each binding determination was performed in triplicate. The chemical structures of the azole antifungals used in this study are shown in Fig. S5 in the supplemental material.

A further assay addresses T2, CaCYP51 D278N+G464S (Candida albicans, UniProt P10613, D278N/G464S).
T2 construct: made in house; host or cells: E. coli DH5α (pCWori+)
Briefly: Azole ligand binding (type II difference spectra). Here is the method: as §1

Where “and” joins values, the source holds several entries; their conditions need not be identical. Identical values can stand only once.

T2 sequence (P10613 whole entry, looked up, stated change not applied): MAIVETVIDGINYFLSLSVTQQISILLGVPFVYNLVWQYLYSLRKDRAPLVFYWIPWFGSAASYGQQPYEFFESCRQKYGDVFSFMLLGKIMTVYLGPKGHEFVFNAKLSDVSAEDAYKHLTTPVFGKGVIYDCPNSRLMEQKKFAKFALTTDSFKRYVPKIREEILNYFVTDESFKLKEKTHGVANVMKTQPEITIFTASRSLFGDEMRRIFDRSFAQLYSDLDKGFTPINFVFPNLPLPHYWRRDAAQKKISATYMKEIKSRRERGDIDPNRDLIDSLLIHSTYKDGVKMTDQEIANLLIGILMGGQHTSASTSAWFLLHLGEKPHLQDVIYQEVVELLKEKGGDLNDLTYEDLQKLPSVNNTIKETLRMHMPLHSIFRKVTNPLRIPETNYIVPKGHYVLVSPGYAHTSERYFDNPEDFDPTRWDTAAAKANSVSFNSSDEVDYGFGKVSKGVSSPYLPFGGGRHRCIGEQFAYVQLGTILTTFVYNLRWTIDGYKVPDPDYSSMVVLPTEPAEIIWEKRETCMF
T1 sequence (P10613 whole entry, looked up, stated change not applied): as above

On to `OC(Cn1cncn1)(Cn1cncn1)c1ccc(F)cc1F` [Fluconazole, fluconazole], for which the “fold increase in IC50 over wild-type enzyme” value in the assay on CaCYP51 Y132F+K143R is 15 fold and 15.3 fold. Besides, the Kd (commonly a measure of binding affinity in units of concentration) on CaCYP51 D278N stood at 0.12 ± 0.035 µM; at CaCYP51 D278N+G464S (4 μM protein, 22°C, ± standard deviation, triplicate, read-out: dissociation constant (Kd)), 0.015 ± 0.009 µM. Also, the “apparent Kd, fold lower than wild-type enzyme” value on CaCYP51 D278N+G464S is reported as 3 fold.

(Values after publication PMC6496074, “The Evolution of Azole Resistance in Candida albicans Sterol 14α-Demethylase (CYP51) through Incremental Amino Acid Substitutions” (Antimicrobial Agents and Chemotherapy, 2019).)
